Patent US8673905B2, “Imidazo pyrazines” (Hoffmann-La Roche Inc., priority 2011, dated 2014)
Counter-ions that a name gives are not always drawn.

How the values were obtained:
human recombinant FLT3 = human recombinant FLT3 (Homo sapiens (Human), UniProt P36888); assay: FLT3 Kinase Assay (Caliper mobility shift); format: biochemical; conditions: for IC50: 100 μM ATP, 28° C., 90 minutes, read-out: Enzyme IC50 (μM) FLT3; for inhibition at 10 µM: 10 μM test compound, reported where IC50 was not determined, read-out: % inhibition of FLT3 at 10 μM test compound concentration
Procedure: After incubation, the reaction product was analyzed by electrophoretic mobility shift run on Caliper by manufacturer's protocol.

Molm13 cells = assay: Cell Glo Viability Assay (Luminescence), Molm13; format: cell-based; conditions: Homo sapiens, MOLM-13, 120 h, 5 days, CellTiter-Glo, read-out: Cellular EC50 (μM) Molm13
Procedure: (§1) Molm13 cells, a human acute monocytic leukemia cell line, and MV4-11 cells, a human leukemia cell line known to express mutated FLT3 cells (both from ATCC) were seeded separately at 2000 cells per well in 90 μL of RPMI1640 medium supplemented with 10% FBS in 96-well black-walled plates (BD Falcon). Test compounds were diluted at ten times of assay concentrations, 10 μL was added into duplicate wells. Plates were incubated at 37° C. with 5% CO2 for 5 days. Cell viability was assayed by CellTiter-Glo® Luminescent Cell Viability Assay (Promega) following manufacturer's protocol.
(§2) The results of this assay, given as EC50 values, indicate the concentration of test compound that inhibits tumor cell proliferation by 50%.

MV4-11 cells = assay: Cell Glo Viability Assay (Luminescence), MV4-11; format: cell-based; conditions: Homo sapiens, 120 h; MV4-11 cells (mutated FLT3), 5 days, CellTiter-Glo; read-out: Cellular EC50 (μM) MV4-11
Procedure: as §1, §2

Sequence of human recombinant FLT3 (P36888 27-993): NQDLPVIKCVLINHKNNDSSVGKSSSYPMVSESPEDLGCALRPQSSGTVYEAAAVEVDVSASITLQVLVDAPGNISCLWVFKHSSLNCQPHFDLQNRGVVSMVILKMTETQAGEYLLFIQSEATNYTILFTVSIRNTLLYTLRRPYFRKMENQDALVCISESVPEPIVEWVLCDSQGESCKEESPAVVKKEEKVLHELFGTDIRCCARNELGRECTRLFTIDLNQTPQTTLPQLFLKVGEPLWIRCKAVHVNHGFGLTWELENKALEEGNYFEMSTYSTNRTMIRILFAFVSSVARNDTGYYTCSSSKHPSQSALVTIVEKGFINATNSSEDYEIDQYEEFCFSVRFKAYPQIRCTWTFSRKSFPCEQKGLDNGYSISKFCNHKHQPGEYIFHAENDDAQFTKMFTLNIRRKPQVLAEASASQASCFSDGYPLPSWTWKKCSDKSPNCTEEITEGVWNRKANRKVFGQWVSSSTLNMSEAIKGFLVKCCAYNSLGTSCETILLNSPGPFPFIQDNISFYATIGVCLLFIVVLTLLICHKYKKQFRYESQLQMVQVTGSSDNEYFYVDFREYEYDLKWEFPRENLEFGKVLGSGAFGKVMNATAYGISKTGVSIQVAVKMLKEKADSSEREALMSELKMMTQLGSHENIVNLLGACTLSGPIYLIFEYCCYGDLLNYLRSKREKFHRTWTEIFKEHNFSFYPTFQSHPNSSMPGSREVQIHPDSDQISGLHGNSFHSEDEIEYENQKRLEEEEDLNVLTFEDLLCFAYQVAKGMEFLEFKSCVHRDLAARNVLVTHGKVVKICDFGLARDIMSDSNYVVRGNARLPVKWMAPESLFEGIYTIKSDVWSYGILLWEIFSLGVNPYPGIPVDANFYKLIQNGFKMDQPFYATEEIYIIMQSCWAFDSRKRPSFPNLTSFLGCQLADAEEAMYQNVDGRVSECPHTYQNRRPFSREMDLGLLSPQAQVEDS

| IC50 (human recombinant FLT3) [µM] | inhibition at 10 µM (human recombinant FLT3) [%] | SMILES | EC50 (Molm13 cells) [µM] | EC50 (MV4-11 cells) [µM] |
| --- | --- | --- | --- | --- |
| < 0.005 | – | CNc1nccn2c(-c3ccnc(Nc4ccccc4)n3)cnc12 [Example 20, Methyl-[3-(2-phenylamino-pyrimidin-4-yl)-imidazo[1,2-a]pyrazin-8-yl]-amine] | 0.052 | 0.041 |
| – | – | CNc1nccc(-c2cnc3c(NC4CCNCC4)nccn23)n1 [Example 26, [3-(2-Methylamino-pyrimidin-4-yl)-imidazo[1,2-a]pyrazin-8-yl]-piperidin-4-yl-amine] | 2.56 | 1.12 |
| – | – | CC(C)Nc1nccc(-c2cnc3c(NCCO)nccn23)n1 [Example 30, 2-[3-(2-Isopropylamino-pyrimidin-4-yl)-imidazo[1,2-a]pyrazin-8-ylamino]-ethanol] | 2.19 | 0.745 |
| – | 29.2 | CN1CCN(c2nccn3c(-c4ccnc(NCc5ccc(Cl)cc5)n4)cnc23)CC1 [Example 59, (4-Chloro-benzyl)-{4-[8-(4-methyl-piperazin-1-yl)-imidazo[1,2-a]pyrazin-3-yl]-pyrimidin-2-yl}-amine; hydrochloride] | – | – |
| – | 33.5 | CN1CCN(c2nccn3c(-c4ccnc(NCc5cccs5)n4)cnc23)CC1 [Example 64, {4-[8-(4-Methyl-piperazin-1-yl)-imidazo[1,2-a]pyrazin-3-yl]-pyrimidin-2-yl}-thiophen-2-ylmethyl-amine; hydrochloride] | – | – |
| < 0.005 | – | N[C@H]1CC[C@H](Nc2nccn3c(-c4ccnc(NCc5cccc(Cl)c5)n4)cnc23)CC1 [Example 67, N-{3-[2-(3-Chloro-benzylamino)-pyrimidin-4-yl]-imidazo[1,2-a]pyrazin-8-yl}-cyclohexane-1,4-diamine; hydrochloride] | 0.049 | 0.017 |
| < 0.005 | – | N[C@H]1CC[C@H](Nc2nccn3c(-c4ccnc(NCc5ccccc5)n4)cnc23)CC1 [Example 68, N-[3-(2-Benzylamino-pyrimidin-4-yl)-imidazo[1,2-a]pyrazin-8-yl]-cyclohexane-1,4-diamine; hydrochloride] | 0.061 | 0.052 |
| – | 13.2 | CN1CCN(c2nccn3c(-c4cccc(NCc5ccc(Cl)cc5)n4)cnc23)CC1 [Example 71, (4-Chloro-benzyl)-{6-[8-(4-methyl-piperazin-1-yl)-imidazo[1,2-a]pyrazin-3-yl]-pyridin-2-yl}-amine; hydrochloride] | – | – |
| – | – | c1ccc(CNc2nccc(-c3cnc4c(NCCN5CCOCC5)nccn34)n2)cc1 [Example 72, [3-(2-Benzylamino-pyrimidin-4-yl)-imidazo[1,2-a]pyrazin-8-yl]-(2-morpholin-4-yl-ethyl)-amine; hydrochloride] | 0.171 | 0.124 |
| – | – | N[C@H]1CC[C@H](Nc2nccn3c(-c4cccc(NCc5ccccc5)n4)cnc23)CC1 [Example 73, N-[3-(6-Benzylamino-pyridin-2-yl)-imidazo[1,2-a]pyrazin-8-yl]-cyclohexane-1,4-diamine; hydrochloride] | 0.077 | 0.04 |
| – | – | CN1CCN(c2nccn3c(-c4ccnc(NC(CN)c5ccsc5)n4)cnc23)CC1 (stereo not drawn) [Example 75, N1-{4-[8-(4-Methyl-piperazin-1-yl)-imidazo[1,2-a]pyrazin-3-yl]-pyrimidin-2-yl}-1-thiophen-3-yl-ethane-1,2-diamine; hydrochloride] | 1.69 | 0.878 |
| < 0.005 | – | NCCC(Nc1nccc(-c2cnc3c(N[C@H]4CC[C@H](N)CC4)nccn23)n1)c1ccccc1 (stereo partly drawn) [Example 76, N-{3-[2-(3-Amino-1-phenyl-propylamino)-pyrimidin-4-yl]-imidazo[1,2-a]pyrazin-8-yl}-cyclohexane-1,4-diamine; hydrochloride] | 0.301 | 0.232 |
| < 0.005 | – | NCC(Nc1nccc(-c2cnc3c(N[C@H]4CC[C@H](N)CC4)nccn23)n1)c1ccccc1 (stereo partly drawn) [Example 77, N-{3-[2-(2-Amino-1-phenyl-ethylamino)-pyrimidin-4-yl]-imidazo[1,2-a]pyrazin-8-yl}-cyclohexane-1,4-diamine; hydrochloride] | 0.08 | 0.015 |
| – | – | CN1CCN(c2nccn3c(-c4ccnc(NC(CN)c5cccc(Cl)c5)n4)cnc23)CC1 (stereo not drawn) [Example 79, 1-(3-Chloro-phenyl)-N1-{4-[8-(4-methyl-piperazin-1-yl)-imidazo[1,2-a]pyrazin-3-yl]-pyrimidin-2-yl}-ethane-1,2-diamine; hydrochloride] | 1.97 | 1.01 |
| < 0.005 | – | NCC(Nc1cccc(-c2cnc3c(N[C@H]4CC[C@H](N)CC4)nccn23)n1)c1ccccc1 (stereo partly drawn) [Example 80, N-{3-[6-(2-Amino-1-phenyl-ethylamino)-pyridin-2-yl]-imidazo[1,2-a]pyrazin-8-yl}-cyclohexane-1,4-diamine; hydrochloride] | 0.041 | < 0.014 |
| – | – | NCCC(Nc1cccc(-c2cnc3c(N[C@H]4CC[C@H](N)CC4)nccn23)n1)c1ccccc1 (stereo partly drawn) [Example 81, N-{3-[6-(3-Amino-1-phenyl-propylamino)-pyridin-2-yl]-imidazo[1,2-a]pyrazin-8-yl}-cyclohexane-1,4-diamine; hydrochloride] | 0.255 | 0.288 |
| – | – | N[C@H]1CC[C@H](Nc2nccn3c(-c4cccc(NCc5cccc(Cl)c5)n4)cnc23)CC1 [Example 82, N-{3-[6-(3-Chloro-benzylamino)-pyridin-2-yl]-imidazo[1,2-a]pyrazin-8-yl}-cyclohexane-1,4-diamine; hydrochloride] | 0.119 | 0.049 |
| < 0.005 | – | N[C@H]1CC[C@H](Nc2nccn3c(-c4ccnc(NCc5ccccc5Cl)n4)cnc23)CC1 [Example 83, N-{3-[2-(2-Chloro-benzylamino)-pyrimidin-4-yl]-imidazo[1,2-a]pyrazin-8-yl}-cyclohexane-1,4-diamine; hydrochloride] | 0.021 | 0.016 |
| < 0.005 | – | N[C@H]1CC[C@H](Nc2nccn3c(-c4cccc(NCc5ccsc5)n4)cnc23)CC1 [Example 84, N-(3-{6-[(Thiophen-3-ylmethyl)-amino]-pyridin-2-yl}-imidazo[1,2-a]pyrazin-8-yl)-cyclohexane-1,4-diamine; hydrochloride] | 0.056 | 0.068 |
| < 0.005 | – | N[C@H]1CC[C@H](Nc2nccn3c(-c4cccc(NCc5ccccc5Cl)n4)cnc23)CC1 [Example 85, N-{3-[6-(2-Chloro-benzylamino)-pyridin-2-yl]-imidazo[1,2-a]pyrazin-8-yl}-cyclohexane-1,4-diamine; hydrochloride] | < 0.014 | < 0.014 |
| – | – | N[C@H]1CC[C@H](Nc2nccn3c(-c4cccc(NCc5ccc(Cl)cc5)n4)cnc23)CC1 [Example 86, N-{3-[6-(4-Chloro-benzylamino)-pyridin-2-yl]-imidazo[1,2-a]pyrazin-8-yl}-cyclohexane-1,4-diamine; hydrochloride] | 0.353 | 0.385 |
| – | – | N[C@H]1CC[C@H](Nc2nccn3c(-c4cccc(NCc5cccs5)n4)cnc23)CC1 [Example 87, N-(3-{6-[(Thiophen-2-ylmethyl)-amino]-pyridin-2-yl}-imidazo[1,2-a]pyrazin-8-yl)-cyclohexane-1,4-diamine; hydrochloride] | 0.074 | 0.07 |
| – | – | Clc1ccccc1CNc1nccc(-c2cnc3c(NCCN4CCOCC4)nccn23)n1 [Example 88, {3-[2-(2-Chloro-benzylamino)-pyrimidin-4-yl]-imidazo[1,2-a]pyrazin-8-yl}-(2-morpholin-4-yl-ethyl)-amine; hydrochloride] | 0.037 | 0.055 |
| – | – | Clc1cccc(CNc2nccc(-c3cnc4c(NCCN5CCOCC5)nccn34)n2)c1 [Example 89, {3-[2-(3-Chloro-benzylamino)-pyrimidin-4-yl]-imidazo[1,2-a]pyrazin-8-yl}-(2-morpholin-4-yl-ethyl)-amine; hydrochloride] | 0.075 | 0.06 |
| < 0.005 | – | NCCC(Nc1cccc(-c2cnc3c(NCCN4CCOCC4)nccn23)n1)c1cccc(Cl)c1 (stereo not drawn) [Example 90, 1-(3-Chloro-phenyl)-N-1-{6-[8-(2-morpholin-4-yl-ethylamino)-imidazo[1,2-a]pyrazin-3-yl]-pyridin-2-yl}-propane-1,3-diamine hydrochloride] | 0.034 | < 0.014 |
| < 0.005 | – | NCC(Nc1cccc(-c2cnc3c(NCCN4CCOCC4)nccn23)n1)c1cccc(Cl)c1 (stereo not drawn) [Example 91, 1-(3-Chloro-phenyl)-N-1-{6-[8-(2-morpholin-4-yl-ethylamino)-imidazo[1,2-a]pyrazin-3-yl]-pyridin-2-yl}-ethane-1,2-diamine hydrochloride] | < 0.014 | < 0.014 |
